From patent US9243247B2, “Composition for promoting apoptosis or inhibiting cell growth, comprising epstein-barr virus microrna” (Catholic University Industry Academic Cooperation Foundation, priority 2011, dated 2016) come the findings set out here.

Common to all, as to format: cell-based
For data set [1], the system named is AGS cell strain. The data set can be described thus: Cell growth test (CCK-8 assay) after transfection of BART miRNA mimics. Conditions: mimic 10 nM, 72 hours after transfection, relative to scrambled control (=1). On the procedure: An AGS cell strain (Korean Cell Line Bank), which is a stomach cancer cell strain, was cultured in an RPMI1640 (Gibco) culture medium including 10% fetal bovine serum. Mature type synthesized BART miRNAs were transfected to the AGS cell strain by using G-fectin (Genolution) according to a protocol of the manufacture.
To investigate the effect of individual EBV BART miRNAs on the AGS cell strain, the synthesized miRNAs were transfected to the AGS cell strain and, after 72 hours, cells were counted by CCK-8 assay.
Immediately after the AGS cell strain, which is an EBV-negative cell strain, was divided into 96-well plate having 1×10^3 cells/well, a synthesized miRNA (10 nM) was transfected by using G-fectin. After the transfection, according to the experimental objective, the cells were cultured at 37° C. in an incubator, and then CCK-8 was divided among the wells by allocating 10 μl of CCK-8 to each well and the resulting mixture was cultured in an incubator at 37° C. for two hours. Then, the light absorbance was measured with an ELISA measuring instrument.
By the method described in Example 3, miR-BART5-5p mimic or miR-BART15-3p mimic (10 nM) were transfected to the AGS cell strain, and the effect thereof on cell growth was investigated over time.
miR-BART5-5p, miR-BART15-3p, and miR-BART20-3p were transfected to the AGS cell strain (1×10^3 cells/well) in a concentration of 1, 3, 10, and 30 nM, and the effect on cell growth was investigated. Immediately after the AGS cell strain was divided into a 96-well plate such that 1×10^3 AGS cells were allocated to each well, a synthesized miRNA was transfected by using G-fectin. Seventy two hours after the transfection, CCK-8 was divided among the wells by allocating 10 μl of CCK-8 to each well, and the resulting mixture was cultured at 37° C. in an incubator for two hours.
A general note: Tetrazolium assays rely on reduction of a dye to a coloured formazan, in cell work by metabolically active cells.

Data set [2] relates to AGS cell strain. The data set can be described thus: Effect on cell cycle (propidium iodide staining, FACS, sub G1). Conditions: mimic 10 nM, 10 uM 5-FU 24 h after transfection, then 48 hours, relative to scrambled control (=1). On the procedure:
The AGS cells were divided into a 96-well plate such that 2×10^5 AGS cells were allocated to each well, and synthesized miRNAs (10 nM) were transfected and cultured at 37° C. in an incubator. Twenty four hours after the transfection, 10 uM of 5-FU, which is an anti-cancer agent, was treated in one case or not treated in another case, and then the resulting mixture was cultured in an incubator at 37° C. for 48 hours. The cells were detached by using Trypsin-EDTA and washed with PBS two times.
Immediately after the AGS cell strains, which are EBV-negative cell strains, were divided into a 6-well plate such that 2×10^5 AGS cells were allocated to each well, a synthesized miRNA (10 nM) was transfected by using G-fectin and cultured at 37° C. in an incubator. Twenty four hours after the transfection, 10 uM of 5-FU was treated and the resulting mixture was cultured at 37° C. in an incubator for 48 hours. The cells were detached by using Trypsin-EDTA and washed with PBS two times. Afterwards, DNA was stained by propidium iodide staining and the ratio of cells where cell cycle was changed was investigated by FACS.

For data set [3], the system named is AGS cell strain. The data set can be described thus: Measurement of apoptosis (Annexin V staining, FACS). The settings on record: for Relative Apoptotic cell: AGS, mimic 10 nM, 10 uM 5-FU 24 h after transfection, then 48 hours, Annexin V, relative to scrambled control (=1), n=9; for effect on cell growth and apoptosis (summary statement): mimics transfected to AGS, tumor cell strain not infected with EBV. The protocol:
Immediately after the AGS cell strain, which is an EBV-negative cell strain, was divided was divided into a 6-well plate such that 2×10^5 AGS cells were allocated to each well, a synthesized miRNA (10 nM) was transfected by using G-fectin and the resulting mixture was cultured at 37 t in an incubatorTwenty four hours after the transfection, 10 uM of 5-FU was treated and the resulting mixture was cultured in an incubator at 37° C. for 48 hours. The cells were detached by using Trypsin-EDTA and washed with PBS two times. Afterwards, the cells were treated with a PE Annexin V Apoptosis Detection Kit and the changed ratio of apoptotic cell was investigated by FACS (FIG. 7).
Immediately after the AGS cell strain, which is an EBV-negative cell strain, is divided into a 6-well plate such that 2×10^5 AGS cells were allocated to each well, a synthesized miRNA (10 nM) was transfected by using G-fectin and the resulting mixture was cultured at 37° C. Twenty four hours after the transfection, 10 uM of 5-FU, which is an anti-cancer agent, was treated and the resulting mixture was cultured in an incubator at 37° C. for 48 hours. The cells were detached by using Trypsin-EDTA and washed with PBS two times. Afterwards, the cells were treated with a PE Annexin V Apoptosis Detection Kit and the ratio of cells where apoptosis took place was measured by FACS.

Regarding “BART13-3p: EBV BART miRNA mimic, double stranded RNA; sense SEQ NO: 79, antisense SEQ NO: 80 (sense UGUAACUUGCCAGGGACGGCUGA; antisense UCAGCCGUCCCUGGCAAGUUACA; chemistry not given here)”, the “Relative Cell Growth” value in the data set on AGS cell strain [1] (n=9) was 1.255. Further, the “Relative Sub G1” value in the data set on AGS cell strain [2] was found to be 0.9813. In addition, in the data set on AGS cell strain [3], the “Relative Apoptotic cell” value was found to be 1.187; the “effect on cell growth and apoptosis (summary statement)” value (“effect on cell growth and apoptosis” below) was “inhibit cell growth and promote apoptosis”. In addition, the “Relative Apoptotic cell” value in the data set on AGS cell strain [3] (listed as 13-3p) was “significantly higher”.

On to “BART13-5p: EBV BART miRNA mimic, double stranded RNA; sense SEQ NO: 77, antisense SEQ NO: 78 (sense AACCGGCUCGUGGCUCGUACAG; antisense CUGUACGAGCCACGAGCCGGUU; chemistry not given here)”, for which the “Relative Cell Growth” value with AGS cell strain [1] (n=9) was 1.326. Besides, the “Relative Sub G1” value in the data set with AGS cell strain [2] is recorded as 1.178; in the data set with AGS cell strain [2] (listed as 13-5p) it was “increased”. Also, the “Relative Apoptotic cell” value is 1.077 in the data set on AGS cell strain [3] and “significantly higher” in the data set on AGS cell strain [3] (listed as 13-5p). Besides, the “effect on cell growth and apoptosis” value in the data set with AGS cell strain [3] is “inhibit cell growth and promote apoptosis”.

With “BART14-3p: EBV BART miRNA mimic, double stranded RNA; sense SEQ NO: 83, antisense SEQ NO: 84 (sense UAAAUGCUGCAGUAGUAGGGAU; antisense AUCCCUACUACUGCAGCAUUUA; chemistry not given here)”, the “Relative Cell Growth” value with AGS cell strain [1] (n=9) was found to be 1.447. Moreover, in the data set with AGS cell strain [2], the “Relative Sub G1” value is 0.8757. The “Relative Apoptotic cell” value with AGS cell strain [3] is 0.9426.

On to “BART14-5p: EBV BART miRNA mimic, double stranded RNA; sense SEQ NO: 81, antisense SEQ NO: 82 (sense UACCCUACGCUGCCGAUUUACA; antisense UGUAAAUCGGCAGCGUAGGGUA; chemistry not given here)”, for which the “Relative Cell Growth” value with AGS cell strain [1] (n=9) is recorded as 1.408. Further, the “Relative Sub G1” value in the data set with AGS cell strain [2] came out at 0.9076. Also, the “Relative Apoptotic cell” value with AGS cell strain [3] is 1.054.

As for “BART15-5p: EBV BART miRNA mimic, double stranded RNA; sense SEQ NO: 13, antisense SEQ NO: 14 (sense AGGGAAACAUGACCACCUGAAGUC; antisense GACUUCAGGUGGUCAUGUUUCCCU; chemistry not given here)”, the “Relative Cell Growth” value in the data set with AGS cell strain [1] (n=9) is 0.9545. In addition, the “Relative Sub G1” value in the data set on AGS cell strain [2] was determined as 0.8195. Further, the “Relative Apoptotic cell” value with AGS cell strain [3] is given as 1.022.

Take “BART16-3p: EBV BART miRNA mimic, double stranded RNA; sense SEQ NO: 23, antisense SEQ NO: 24 (sense AUCACCACCCUCUAUCCAUAU; antisense AUAUGGAUAGAGGGUGGUGAU; chemistry not given here)”: the “Relative Cell Growth” value in the data set on AGS cell strain [1] (n=9) worked out at 1.159. In the data set with AGS cell strain [2], the “Relative Sub G1” value is given as 0.9852. In the data set on AGS cell strain [3], the “Relative Apoptotic cell” value worked out at 1.37; the “effect on cell growth and apoptosis” value was “inhibit cell growth and promote apoptosis”. For the same substance, the “Relative Apoptotic cell” value with AGS cell strain [3] (listed as 16-3p) was “significantly higher”.

In the case of “BART16-5p: EBV BART miRNA mimic, double stranded RNA; sense SEQ NO: 21, antisense SEQ NO: 22 (sense UUAGAUAGAGUGGGUGUGUGCUCU; antisense AGAGCACACACCCACUCUAUCUAA; chemistry not given here)”, the “Relative Cell Growth” value is 0.705 in the data set with AGS cell strain [1] (n=9) and “inhibited cell growth” with AGS cell strain [1] (n=9, listed as miR-BART16-5p). Moreover, the entries for the “Relative Sub G1” value with AGS cell strain [2] and in the data set on AGS cell strain [2] (listed as 16-5p) were 1.182 and “increased”, respectively. Moreover, the “Relative Apoptotic cell” value is 1.312 in the data set with AGS cell strain [3] and “significantly higher” in the data set on AGS cell strain [3] (listed as 16-5p). Moreover, the “effect on cell growth and apoptosis” value in the data set with AGS cell strain [3] is “inhibit cell growth and promote apoptosis”.

On to “BART17-3p: EBV BART miRNA mimic, double stranded RNA; sense SEQ NO: 27, antisense SEQ NO: 28 (sense UGUAUGCCUGGUGUCCCCUUAGU; antisense ACUAAGGGGACACCAGGCAUACA; chemistry not given here)”, for which the “Relative Cell Growth” value in the data set with AGS cell strain [1] (n=9) was 0.7865; in the data set on AGS cell strain [1] (n=9, listed as miR-BART17-3p) it was “inhibited cell growth”. In addition, the “Relative Sub G1” value in the data set on AGS cell strain [2] is 1.067; in the data set with AGS cell strain [2] (listed as 17-3p), “increased”. In addition, the “Relative Apoptotic cell” value in the data set on AGS cell strain [3] is on record as 1.088; with AGS cell strain [3] (listed as 17-3p), “significantly higher”. For the same substance, in the data set with AGS cell strain [3], the “effect on cell growth and apoptosis” value is “inhibit cell growth and promote apoptosis”.

“BART17-5p: EBV BART miRNA mimic, double stranded RNA; sense SEQ NO: 25, antisense SEQ NO: 26 (sense UAAGAGGACGCAGGCAUACAAG; antisense CUUGUAUGCCUGCGUCCUCUUA; chemistry not given here)”: the “Relative Cell Growth” value in the data set with AGS cell strain [1] (n=9) is 0.9551. In the data set with AGS cell strain [2], the “Relative Sub G1” value is listed as 1.099. In the data set with AGS cell strain [3], the “Relative Apoptotic cell” value is reported as 1.004.

In the case of “BART18-3p: EBV BART miRNA mimic, double stranded RNA; sense SEQ NO: 39, antisense SEQ NO: 40 (sense UAUCGGAAGUUUGGGCUUCGUC; antisense GACGAAGCCCAAACUUCCGAUA; chemistry not given here)”, the “Relative Cell Growth” value with AGS cell strain [1] (n=9) is given as 1.393. Further, in the data set on AGS cell strain [2], the “Relative Sub G1” value is listed as 0.9963. Besides, the “Relative Apoptotic cell” value with AGS cell strain [3] stood at 0.8705.

With “BART18-5p: EBV BART miRNA mimic, double stranded RNA; sense SEQ NO: 37, antisense SEQ NO: 38 (sense UCAAGUUCGCACUUCCUAUACA; antisense UGUAUAGGAAGUGCGAACUUGA; chemistry not given here)”, the “Relative Cell Growth” value with AGS cell strain [1] (n=9) was found to be 1.395. In addition, the “Relative Sub G1” value in the data set with AGS cell strain [2] was found to be 0.9828. In addition, in the data set with AGS cell strain [3], the “Relative Apoptotic cell” value is reported as 1.202; the “effect on cell growth and apoptosis” value was “inhibit cell growth and promote apoptosis”. Moreover, in the data set on AGS cell strain [3] (listed as 18-5p), the “Relative Apoptotic cell” value was “significantly higher”.
